Experimental data taken from patent US20100068204A1, “4-ARYLOXYQUINOLIN-2(1H)-ONES AS MTOR KINASE AND PI3 KINASE INHIBITORS, FOR USE AS ANTI-CANCER AGENTS” (Wyeth, priority 2008, published 2010).

Assays:
[1] = biological target: human TOR (FLAG-TOR) (Homo sapiens, UniProt P42345); experiment: mTOR enzyme assay (DELFIA format, purified enzyme); type: biochemical; conditions: 800 ng/ml FLAG-TOR, 100 μM ATP, 1.25 μM His6-S6K; read-out: mTOR Kinase IC50
[2] = test system: MDA468 breast tumor cells; experiment: In vitro cell growth assay (MTS), MDA468; type: cell-based, human; conditions: three days after drug treatment
Method: (§1) Cell lines used were human adenocarcinoma (LoVo), […], prostate (LNCap), breast (MDA468, MCF7), colon (HCT116), renal (HTB44 A498), and ovarian (OVCAR3) tumor cell lines. The tumor cells were plated in 96-well culture plates at approximately 3000 cells per well. One day following plating, various concentrations of inhibitors in DMSO were added to cells (final DMSO concentration in cell assays was 0.25%). Three days after drug treatment, viable cell densities were determined by cell mediated metabolic conversion of the dye MTS, a well-established indicator of cell proliferation in vitro. Cell growth assays were performed using kits purchased from Promega Corporation (Madison, Wis.), following the protocol provided by the vendor. Measuring absorbance at 490 nm generated MTS assay results. Compound effect on cell proliferation was assessed relative to untreated control cell growth.

[3] = test system: LNCap prostate tumor cells; experiment: In vitro cell growth assay (MTS), LNCap; type: cell-based, human; conditions: three days after drug treatment
Method: as §1

[4] = biological target: PI3Kα (Homo sapiens, UniProt P42336); experiment: PI3Kα fluorescence polarization assay; type: biochemical; conditions: 20 μM PIP2, 25 μM ATP
Sequence of PI3Kα (P42336 whole entry, species assumed): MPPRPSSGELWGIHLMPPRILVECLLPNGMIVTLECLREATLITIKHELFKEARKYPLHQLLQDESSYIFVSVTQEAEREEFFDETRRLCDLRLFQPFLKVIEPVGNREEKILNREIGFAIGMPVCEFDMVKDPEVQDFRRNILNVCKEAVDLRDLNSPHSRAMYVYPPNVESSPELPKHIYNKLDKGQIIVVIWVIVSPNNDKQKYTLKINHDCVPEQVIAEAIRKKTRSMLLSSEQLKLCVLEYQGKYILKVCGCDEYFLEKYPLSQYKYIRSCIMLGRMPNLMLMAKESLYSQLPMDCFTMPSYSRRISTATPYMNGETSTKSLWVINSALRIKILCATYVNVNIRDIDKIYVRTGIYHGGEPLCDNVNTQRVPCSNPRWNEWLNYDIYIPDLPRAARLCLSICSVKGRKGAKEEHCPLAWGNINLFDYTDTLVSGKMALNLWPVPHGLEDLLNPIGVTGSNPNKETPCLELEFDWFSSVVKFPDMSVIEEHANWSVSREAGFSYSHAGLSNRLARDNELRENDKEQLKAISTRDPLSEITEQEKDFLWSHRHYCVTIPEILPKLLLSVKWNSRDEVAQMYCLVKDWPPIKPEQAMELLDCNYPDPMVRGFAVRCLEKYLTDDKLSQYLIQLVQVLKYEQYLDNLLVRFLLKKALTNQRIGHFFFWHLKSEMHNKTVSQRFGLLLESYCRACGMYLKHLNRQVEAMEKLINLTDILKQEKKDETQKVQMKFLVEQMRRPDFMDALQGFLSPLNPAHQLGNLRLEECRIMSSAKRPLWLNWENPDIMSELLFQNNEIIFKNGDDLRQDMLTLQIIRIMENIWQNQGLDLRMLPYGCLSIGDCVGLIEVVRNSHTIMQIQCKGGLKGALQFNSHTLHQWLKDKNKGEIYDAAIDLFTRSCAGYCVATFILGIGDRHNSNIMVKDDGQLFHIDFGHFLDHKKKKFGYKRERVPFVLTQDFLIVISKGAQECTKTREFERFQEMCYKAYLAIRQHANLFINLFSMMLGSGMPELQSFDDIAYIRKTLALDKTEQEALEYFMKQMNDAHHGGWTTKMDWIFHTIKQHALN
Sequence of PI3Kα (P27986 whole entry partner, species assumed): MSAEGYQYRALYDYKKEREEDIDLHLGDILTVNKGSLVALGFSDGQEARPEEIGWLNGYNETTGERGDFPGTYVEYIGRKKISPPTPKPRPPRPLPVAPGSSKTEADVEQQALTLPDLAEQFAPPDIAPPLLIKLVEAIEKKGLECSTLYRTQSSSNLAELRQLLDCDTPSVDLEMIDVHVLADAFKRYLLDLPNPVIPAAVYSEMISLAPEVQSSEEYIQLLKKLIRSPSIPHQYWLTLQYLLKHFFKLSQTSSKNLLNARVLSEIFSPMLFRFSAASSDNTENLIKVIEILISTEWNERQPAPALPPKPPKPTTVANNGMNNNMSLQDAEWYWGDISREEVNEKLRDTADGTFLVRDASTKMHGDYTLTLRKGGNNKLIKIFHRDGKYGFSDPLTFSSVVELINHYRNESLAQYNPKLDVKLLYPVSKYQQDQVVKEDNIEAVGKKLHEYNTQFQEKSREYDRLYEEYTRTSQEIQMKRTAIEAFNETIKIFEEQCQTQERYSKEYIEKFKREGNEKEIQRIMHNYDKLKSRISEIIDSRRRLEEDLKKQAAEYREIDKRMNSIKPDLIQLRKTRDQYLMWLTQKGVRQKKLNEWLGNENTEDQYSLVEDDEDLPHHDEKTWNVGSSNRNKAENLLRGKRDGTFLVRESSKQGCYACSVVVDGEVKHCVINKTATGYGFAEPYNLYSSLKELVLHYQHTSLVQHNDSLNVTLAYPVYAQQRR
Method: The reaction buffer was 20 mM HEPES pH7.5, 2 mM MgCl2, 0.05% CHAPS, and 0.01% βME (added fresh). The substrate solution was 40 μM PIP2 (diC8, Echelon, Salt Lake City Utah cat #P-4508, 1 mM in water) and 50 μM ATP in the reaction buffer. Nunc 384-well black polypropylene fluorescent plates were used for PI3K assays. The assay is run by putting 9.5 μl of freshly diluted enzyme in the reaction buffer per well, adding 0.5 μl of diluted drug or DMSO, and mixing. Then 10 μl of the substrate solution is added to each well to start the reaction. A final concentration of 20 μM PIP2 and 25 μM ATP in the reaction was used. Reactions were allowed to proceed for 30-60 minutes at room temperature. After 30-60 minutes, 20 μl of a solution of 10 nM TAMRA detector (Red detector probe-Echelon) and 2.5 uM of GST-murine GRP (1.5 mg/ml in 17% glycerol) was added per well to stop the reaction. The resulting solution was mixed well and allowed to stand for 90-110 minutes before reading plate. Assay Plates were read on Perkin-Elmer Envision plate readers with appropriate filters for Tamra [BODIPY-TMRI(1,3,4,5)P4]. Data obtained were used to calculate enzymatic activity and enzyme inhibition by inhibitor compounds. It is important to keep Red probe solutions dark. This procedure is adapted from Echelon Biosciences Inc procedure for their PI3-Kinase fluorescence polarization activity Assay kit Product number K-1100.

Compound	IC50 [1] [µM]	IC50 ([2]; Homo sapiens, 72 h) [µM]	IC50 ([3]; Homo sapiens, LNCaP, 72 h) [µM]	IC50 [4] [µM]	IC50 [3] [µM]	IC50 [2] [µM]
O=c1cc(Oc2ccccc2)c2ccc(-c3cn[nH]c3)cc2[nH]1	> 20	> 60	> 60	2.76		
Cn1cc(-c2ccc3c(Oc4ccccc4)cc(=O)[nH]c3c2)cn1	> 20	> 60	> 60	4.63		
Cc1cccc(Oc2cc(=O)[nH]c3ccccc23)c1 [drawing 313]	0.5	40		> 10	60	
O=c1cc(Oc2ccc(OC(F)F)cc2)c2ccccc2[nH]1	1.04	> 60	5.5	> 10		
COc1ncccc1CNc1cccc(Oc2cc(=O)[nH]c3ccccc23)c1	0.4	60	8.5	6.74		
CC(C)(C)OC(=O)N1CCN(c2ccc(-c3cccc(Oc4cc(=O)[nH]c5ccccc45)c3)cc2)CC1	5.85	44	60	9.89		
O=c1cc(Oc2cccc(-c3cc[nH]n3)c2)c2ccccc2[nH]1	0.15	60	30	6.67		
CC(=O)Nc1ccc2[nH]c(=O)cc(Oc3ccccc3)c2c1	> 20	> 60	> 60	> 10		
O=c1cc(Oc2cccc(F)c2)c2ccccc2[nH]1	1.12	> 60	> 60	> 10		
CC(C)(C)OC(=O)n1ccc2cc(CNc3cccc(Oc4cc(=O)[nH]c5ccccc45)c3)cnc21	4.5	60	11.5	11.8		
O=c1cc(Oc2cccc(-c3ccccc3)c2)c2ccccc2[nH]1	0.63	60	17	> 10		
CC(C)(C)OC(=O)N1CC=C(c2cccc(Oc3cc(=O)[nH]c4ccccc34)c2)CC1	0.65	32	13	9.5		
O=c1cc(Oc2ccc(I)cc2)c2ccccc2[nH]1	0.74	18	> 60	> 10		
O=c1cc(Oc2cccc(-c3ccc(N4CCNCC4)nc3)c2)c2ccccc2[nH]1	0.15	7	4.8	> 10		
O=c1cc(Oc2cccc(NCc3cccnc3Cl)c2)c2ccccc2[nH]1 [drawing 207]	0.13		5.3	11		> 60
Nc1ccc(-c2ccc3[nH]c(=O)cc(Oc4ccccc4)c3c2)cc1	> 20	60	18	6.54		
CNc1ncccc1CNc1cccc(Oc2cc(=O)[nH]c3ccccc23)c1	0.09	6.8	2.8	> 10		
Nc1ccc(CNc2cccc(Oc3cc(=O)[nH]c4ccccc34)c2)cn1	0.11	8	4	7.16		
O=c1cc(Oc2cccc(-c3cccnc3)c2)c2ccccc2[nH]1	0.43	20	7	3.66		
CN1CCN(c2cc(-c3ccc(Oc4cc(=O)[nH]c5ccccc45)cc3)ccn2)CC1	0.56	1.2	0.8	9		
O=c1cc(Oc2ccccc2)c2cc(-c3cc[nH]n3)ccc2[nH]1	11.5	40	> 60	1.02		
Cn1ccc2cc(CNc3cccc(Oc4cc(=O)[nH]c5ccccc45)c3)ccc21	0.35	1.2	1	1.42		
NC(=O)c1ccc(Oc2cc(=O)[nH]c3ccccc23)cc1	1.83	23	> 60	> 10		
O=c1cc(Oc2cccc(-c3ccc(NC4CCN(Cc5ccccn5)CC4)cc3)c2)c2ccccc2[nH]1	0.11	11	5.2	> 10		
